{"source": "patent US7396857B2", "about": "“Therapeutic combinations for the treatment or prevention of depression” (Wyeth, priority 2005, dated 2008)", "key": {"[1]": {"tested_on": "Male Swiss Webster mice", "assay": "Tail suspension test", "assay_type": "in vivo", "from_the_text": "Compound 1, (7-(2,6-dichlorophenyl)-5-fluoro-2,3-dihydrobenzofuran-2-yl)methanamine, was used to exemplify the effectiveness of compounds of the present invention in the tail suspension test. While not a direct model of depression, the tail suspension test is an assay that can evaluate antidepressant-like effects of drugs. Clinically effective drugs such as Prozac (fluoxetine) are effective in this assay. Specifically, they decrease the amount of time the mice spend immobile after being hung upside down by their tails during the test. It is impossible to determine if a mouse is indeed depressed. However, the fact that clinically effective antidepressants reduce immobility lends predictive validity to the model.\nMale Swiss Webster mice (Charles River) weighing 20-35 g were used throughout this study. They were housed in groups of five per cage in an AALAC-accredited facility that was maintained on a 12-h light dark cycle (lights on at 0600 h) and had free access to food and water. Experimental groups consisted of 12 mice, randomly assigned to treatment groups. All experiments were performed between 9:00 AM and noon in accordance to the Guide for the Care and Use of Laboratory Animals as adopted and promulgated by the National Institutes of Health (Pub. 85-23, 1985).\nSolutions of Compound 1 and paroxetine were freshly prepared. Compound 1 was dissolved in saline and paroxetine was dissolved in distilled water. All drugs were injected i.p. at a volume of 10 ml/kg body weight. Combination treatments were cotreated, 30 minutes prior to the test.\nThe procedure followed in this study was a variant of the one originally described by Steru et al. (1985). […] The time spent immobile during a 6-minute test session was automatically recorded. […] Data collected were expressed as a mean of immobility time and statistical analysis was performed using a one-way ANOVA with least significant difference (LSD) post-hoc test."}, "[2]": {"tested_on": "Male Swiss Webster mice", "conditions": "general statement on clinically effective drugs; cited from earlier work"}}}
{"smiles": "NCC1Cc2cc(F)cc(-c3c(Cl)cccc3Cl)c2O1", "note": "(stereo not shown) [Compound 1, (7-(2,6-dichlorophenyl)-5-fluoro-2,3-dihydrobenzofuran-2-yl)methanamine]", "values": [{"measurement": "produced antidepressant-like effects alone", "setting": "[1]; Compound 1 0.1 mg/kg i.p. alone, 30 minutes prior to test, 6-minute session", "value": "Neither"}]}
{"smiles": "CNCCC(Oc1ccc(C(F)(F)F)cc1)c1ccccc1", "note": "(stereo not shown) [Prozac, N-methyl-3-(p-trifluoromethylphenoxy)-3-phenylpropylamine]", "values": [{"measurement": "effectiveness in the tail suspension assay (decrease of time spent immobile)", "setting": "[2]", "value": "effective"}]}
{"smiles": "Fc1ccc([C@@H]2CCNC[C@H]2COc2ccc3c(c2)OCO3)cc1", "note": "[paroxetine, trans-(−)-3-[(1,3-benzodioxol-5-yloxy)methyl]-4-(4-fluo-rophenyl)piperidine]", "values": [{"measurement": "decrease in immobility time", "setting": "[1]; paroxetine 10 mg/kg i.p. dosed alone", "value": 5, "unit": "%"}, {"measurement": "decrease in immobility time", "setting": "[1]; paroxetine 30 mg/kg i.p. dosed alone", "value": 4, "unit": "%"}]}
